These results are taken from ChEMBL document CHEMBL2034870, “Activity landscape modeling of PPAR ligands with dual-activity difference maps” (Bioorg Med Chem, 2012).

In assay [1] the target is T1, Peroxisome proliferator-activated receptor alpha (Homo sapiens, UniProt Q07869).
T1 sequence (Q07869 whole entry): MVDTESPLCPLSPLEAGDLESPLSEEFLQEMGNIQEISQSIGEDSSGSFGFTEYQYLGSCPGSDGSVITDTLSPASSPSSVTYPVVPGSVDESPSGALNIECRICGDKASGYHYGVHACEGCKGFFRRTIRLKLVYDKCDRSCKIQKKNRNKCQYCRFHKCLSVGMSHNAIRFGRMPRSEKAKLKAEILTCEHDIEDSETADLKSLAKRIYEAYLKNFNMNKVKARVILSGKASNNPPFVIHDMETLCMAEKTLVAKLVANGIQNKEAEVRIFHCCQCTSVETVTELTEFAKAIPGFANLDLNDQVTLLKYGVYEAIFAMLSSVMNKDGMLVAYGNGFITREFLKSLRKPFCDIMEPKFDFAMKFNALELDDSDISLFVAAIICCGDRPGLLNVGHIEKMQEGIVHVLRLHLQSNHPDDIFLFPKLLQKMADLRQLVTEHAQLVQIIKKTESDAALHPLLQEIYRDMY
The assay is classed as functional.

Assay [2] deals with T2, Peroxisome proliferator-activated receptor delta (Homo sapiens, UniProt Q03181).
T2 sequence (Q03181 whole entry): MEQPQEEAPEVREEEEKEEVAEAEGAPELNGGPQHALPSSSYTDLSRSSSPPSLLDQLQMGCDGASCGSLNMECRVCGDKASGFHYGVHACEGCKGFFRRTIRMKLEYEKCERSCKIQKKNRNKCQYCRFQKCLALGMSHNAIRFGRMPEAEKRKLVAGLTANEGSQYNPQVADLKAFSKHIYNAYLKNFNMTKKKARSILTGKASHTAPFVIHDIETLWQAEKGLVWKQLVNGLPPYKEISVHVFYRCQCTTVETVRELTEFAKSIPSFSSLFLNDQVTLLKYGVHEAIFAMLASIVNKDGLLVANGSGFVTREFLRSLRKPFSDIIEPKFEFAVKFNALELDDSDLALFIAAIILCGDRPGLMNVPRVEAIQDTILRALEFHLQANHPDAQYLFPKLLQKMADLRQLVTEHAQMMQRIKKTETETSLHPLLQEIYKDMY
The assay is classed as functional.

`CCCc1c(OCCCSc2ccc(CC(=O)O)cc2Cl)ccc(/C(CC)=N\O)c1O`: the IC50 in assay [1] (read-out: pIC50 (converted)) is 100 nM; in assay [2] (read-out: pIC50 (converted)) it was 10 nM.

As for `O=C1NC(=O)[C@H](c2cccc(OCCCOc3ccc(Oc4ccccc4)cc3)c2)S1`, the IC50 in assay [2] (read-out: pIC50 (converted)) is 190 nM.

As to `CCCC[C@@](Cc1ccc(OCCc2nc(-c3ccccc3)oc2C)cc1)(Oc1ccccc1)C(=O)O`, the IC50 in assay [1] (read-out: IC50) was 1850 nM; in assay [2] (read-out: IC50), 7230 nM.

As for `Cc1oc(-c2ccccc2)nc1CCOc1ccc(C[C@H](Oc2ccccc2)C(=O)O)cc1`, the IC50 in assay [1] (read-out: IC50) was 1110 nM; in assay [2] (read-out: IC50) it was 7040 nM.

Take `CC[C@@](Cc1ccc(OCCc2nc(-c3ccccc3)oc2C)cc1)(Oc1ccccc1)C(=O)O`: the IC50 is 473 nM in assay [1] (read-out: pIC50 (converted)) and 5070 nM in assay [2] (read-out: pIC50 (converted)).

In the case of `CCCn1c(CCCc2ccc(OC(C)(C)C(=O)O)cc2)nn([C@H](C)c2ccccc2)c1=O`, the figures for the IC50 in assay [1] (read-out: pIC50 (converted)) and in assay [2] (read-out: pIC50 (converted)) were 220 nM and 1500 nM, respectively.

For the compound `CC(C)Cc1cc(Oc2ccccc2)ccc1OCCCOc1ccc([C@@H]2SC(=O)NC2=O)cc1`, the IC50 in assay [1] (read-out: IC50) came out at 340 nM; in assay [2] (read-out: IC50), 160 nM.

On to `CCCc1cc(Oc2ccc(O)cc2)ccc1OCCCOc1cccc([C@@H]2SC(=O)NC2=O)c1`, for which the IC50 in assay [2] (read-out: IC50) was 3800 nM.

In the case of `CCO[C@H](Cc1ccc2c(c1)cc(C)n2Cc1nc(-c2ccc(C(F)(F)F)cc2)oc1C)C(=O)O`, the IC50 in assay [1] (read-out: pIC50 (converted)) is 352 nM; in assay [2] (read-out: pIC50 (converted)), 372 nM.

With `O=C(O)[C@@H]1CCc2ccc(OCCCOc3ccc(OCC(F)(F)F)cc3Cl)cc2O1`, the results for the IC50 in assay [1] (read-out: IC50) and in assay [2] (read-out: IC50) were 810 nM and 6900 nM, respectively.

As for `CCCO[C@H](Cc1ccc2c(ccn2Cc2nc(-c3ccc(C(F)(F)F)cc3)oc2C)c1)C(=O)O`, the IC50 in assay [1] (read-out: pIC50 (converted)) was 40 nM.

`Cc1oc(-c2ccc(C(F)(F)F)cc2)nc1Cn1ccc2cc(C[C@@H](OC(C)C)C(=O)O)ccc21`: the IC50 is 61 nM in assay [1] (read-out: pIC50 (converted)) and 891 nM in assay [2] (read-out: pIC50 (converted)).

On to `CCCc1cc(-c2ccccc2)ccc1OCCCOc1cccc([C@@H]2OC(=O)NC2=O)c1`, for which the IC50 in assay [2] (read-out: pIC50 (converted)) is 1510 nM.

As to `CCO[C@@H](Cc1cccc2c1ccn2Cc1nc(-c2ccccc2)oc1C)C(=O)O`, the IC50 in assay [1] (read-out: pIC50 (converted)) is 125 nM; in assay [2] (read-out: pIC50 (converted)), 3500 nM.

Take `CCCc1cc(OC2CCCC2)ccc1OCCCOc1cccc([C@@H]2SC(=O)NC2=O)c1`: the IC50 in assay [2] (read-out: pIC50 (converted)) was 920 nM.

As for `CCCc1cc(-c2noc3ccccc23)ccc1OCCCOc1cccc([C@@H]2SC(=O)NC2=O)c1`, the IC50 in assay [2] (read-out: pIC50 (converted)) is 140 nM.

`CCCc1cc(C(=O)c2ccccc2)ccc1OCCCOc1cccc([C@@H]2SC(=O)NC2=O)c1`: the IC50 in assay [2] (read-out: pIC50 (converted)) was 170 nM.

On to `CCCc1cc(C2CCCC2)ccc1OCCCOc1cccc([C@H]2OC(=O)NC2=O)c1`, for which the IC50 in assay [2] (read-out: pIC50 (converted)) is 3850 nM.
